# Assay results: patent US20230391726A1, “DIHYDROQUINAZOLINONES AND RELATED ANALOGS FOR INHIBITING YAP/TAZ-TEAD” (THE KATHOLIEKE UNIVERSITEIT LEUVEN, priority 2022, published 2023)
# Legend:
# Assay type in all cases: cell-based
# [1] = test system: NCl-H226; test: Mesothelioma cell line proliferation assay (ATPlite), NCl-H226; conditions: Homo sapiens, NCI-H226, 144 h, NCl-H226 mesothelioma cells, 6 days incubation
# Procedure: (§1) Mesothelioma cell lines, NCl-H226 and NCl-H2052 (all sourced from the ATCC cell culture collection) are plated in 96-well plates (Corning® 96 Well White Polystyrene Microplate clear flat bottom, white polystyrene (TC-Treated)), at 1500 cells/well in full medium (RPMI 1640 ATCC modification with L-glutamine, HEPES, Phenol Red, Sodium Pyruvate, High glucose, Low sodium bicarbonate and 10% fetal bovine serum). Cells are incubated overnight at 37° C. in an incubator with 5% CO2. Then compounds, dissolved in DMSO, are added in dose-response. Cells are incubated with compound dilutions for another 6 days at 37° C. in an incubator with 5% CO2. Cell viability is quantitated using the ATPlite kit (Perkin-Elmer) and the luminescence is read-out using an Envision instrument (Perkin-Elmer). The amount of relative light units produced using the ATPlite kit is used to calculated percent of inhibition.
# (§2) The activities of some example compounds are depicted in Table 4. The activity ranges A, B and C refer to EC50 values in the mesothelioma cell line proliferation assay as described as follows: “A”: EC50<1 μM; “B”: 1 μM≤EC50≤10 μM and “C”: EC50>10 μM; NT: not tested.
# [2] = test system: NCl-H2052; test: Mesothelioma cell line proliferation assay (ATPlite), NCl-H2052; conditions: Homo sapiens, NCI-H2052, 144 h, NCl-H2052 mesothelioma cells, 6 days incubation
# Procedure: as §1, §2
# [3] = test system: YAP/TAZ-TEAD transcription; test: Reporter gene assay for measuring the inhibition of YAP/TAZ-TEAD transcription (TEAD-responsive element luciferase reporter in Hek293T cells); conditions: Homo sapiens, HEK-293T; Hek293T cells transfected with TEAD-responsive element luciferase reporter, 24 hours incubation
# Procedure: Hek293T cells are cultured in DMEM supplemented with 10% fetal bovine serum, Sodium pyruvate, Sodium bicarbonate, L-glutamine. The cells are harvested and transiently transfected with TEAD-responsive element luciferase reporter. Transfected cells are plated in 384-wells plate containing pre-diluted compounds. After 24 hours incubation at 37° C./5% CO2, assay plates were cooled down to RT and levelled to an equal volume per well, prior to the addition of 25 uL luciferase substrate SteadyLite (Perkin Elmer)/well. The plate was shaken for 10 min at 600 rpm, centrifuged for 1 min at 500 rpm and measured with an Envision reader (PerkinElmer). The amount of relative light units produced by the TEAD reporter is used to calculated percent of inhibition.
# The percent of reporter inhibition was calculated in the presence of a positive control inhibitor (100% inhibition) versus a condition with the presence of the vehicle basal activity of the reporter (0% inhibition). The ability of a test compound to inhibit this activity was determined as:
# Percentage inhibition=[1-((RLU determined in the presence of vehicle−RLU determined for sample with test compound present) divided by (RLU determined in the presence of vehicle−RLU determined for sample with positive control inhibitor))]*100
# The activities of example compounds tested are depicted in Table 3. The activity ranges A, B and C refer to IC50 values in the reporter gene assay as follows: “A”: IC50<1 μM; “B”: 1 μM≤IC50≤20 μM and “C”: IC50>20 μM; NT=not tested.
EC50 [1],EC50 [2],EC50 [3],Structure (SMILES)
> 10 µM,> 10 µM,1 to 20 µM,"O=C1NCN(c2ccc(C(F)(F)F)cc2)c2ccccc21 [Cpd. No. 1, 1-(4-(trifluoromethyl)phenyl)-2,3-dihydroquinazolin-4(1H)-one]"
–,–,1 to 20 µM,"O=C1c2ccccc2N(c2ccc(C(F)(F)F)cc2)CN1CCCO [Cpd. No. 2, 3-(3-hydroxypropyl)-1-(4-(trifluoromethyl)phenyl)-2,3-dihydroquinazolin-4(1H)-one]"
–,–,1 to 20 µM,"C=CC(=O)NC1CN(c2ccccc2)c2ccccc2C1=O (stereo not drawn) [Cpd. No. 7, N-(4-oxo-1-phenyl-1,2,3,4-tetrahydroquinolin-3-yl)acrylamide]"
–,–,> 20 µM,"NC(=O)CN1CN(c2ccc(C(F)(F)F)cc2)c2ccccc2C1=O [Cpd. No. 5, 2-(4-oxo-1-(4-(trifluoromethyl)phenyl)-1,4-dihydroquinazolin-3(2H)-yl)acetamide]"
–,–,> 20 µM,"CNC(=O)CN1CN(c2ccc(C(F)(F)F)cc2)c2ccccc2C1=O [Cpd. No. 6, N-methyl-2-(4-oxo-1-(4-(trifluoromethyl)phenyl)-1,4-dihydroquinazolin-3(2H)-yl)acetamide]"
–,–,1 to 20 µM,"O=C(O)CN1CN(c2ccc(C(F)(F)F)cc2)c2ccccc2C1=O [Cpd. No. 3, 2-(4-oxo-1-(4-(trifluoromethyl)phenyl)-1,4-dihydroquinazolin-3(2H)-yl)acetic acid]"
–,–,1 to 20 µM,"O=C1c2ccccc2N(c2ccc(C(F)(F)F)cc2)CN1CCO [Cpd. No. 4, 3-(2-hydroxyethyl)-1-(4-(trifluoromethyl)phenyl)-2,3-dihydroquinazolin-4(1H)-one]"
